Patent publication US20210214560A1, “COMPOUND, COLORING COMPOSITION, INK, TONER, COLORING RESIN COMPOSITION, AND COMPOSITION FOR DYEING FIBER” (FUJIFILM Corporation, priority 2018, published 2021)

How the values were obtained:
Type in all cases: physicochemical
[1] = Evaluation of maximum absorption wavelength (absorption spectrum in tetrahydrofuran solution); conditions: 1×10^−6 mol/L
[2] = Evaluation of heat stability (heat resistance), powder heated at 180° C. for 5 minutes; conditions: oven 180° C. for 5 minutes, A/A0×100, absorbance in tetrahydrofuran
Method: (§1) Heat stability of each compound was evaluated by the following procedure. 10 mg of the powder of each compound was dissolved in 500 mL of tetrahydrofuran, and the absorption spectrum was measured to obtain a reference absorbance (A0). On the other hand, 10 mg of the powder of each compound was weighed in a 4 cm square aluminum cup, placed in an oven, and heated at 180° C. for 5 minutes. The entire amount of the powder after heating was dissolved in 500 mL of tetrahydrofuran, and the absorption spectrum was measured to obtain an absorbance (A) after the heating test. The residual rate of each compound was calculated by the following expression to evaluate heat stability.
Residual rate of compound (%)=A/A0×100

[3] = Production of toner (melting and mixing with resin at 150° C.); conditions: 3 g compound with 100 g styrene-acrylic acid ester copolymer, melted and mixed at 150° C.
Method: After mixing and pulverizing 3 g of the compound according to the embodiment of the present invention (compound (1-36)) and 100 g of a resin for toner [styrene-acrylic acid ester copolymer; HIMER TB-1000F (trade name, manufactured by Sanyo Chemical Industries, Ltd.)] with a ball mill, the resultant was heated at 150° C. to be melted and mixed, and the results were cooled, roughly pulverized using a hammer mill, and then finely pulverized using a fine pulverizer with an air-jet system. Furthermore, particles which have a particle diameter of 1 to 20 μm were classified and selected to produce a toner.
900 g of carrier iron powder (EFV250/400, trade name, manufactured by Powdertech Co., Ltd.) were uniformly mixed with 10 g of the toner to prepare a developer. Using this developer, copying was performed with a dry type plain paper electrophotographic copier [NP-5000, trade name, manufactured by Canon Inc.].

[4] = Evaluation 2 of heat stability, powder heated at 200° C. for 5 minutes; conditions: oven 200° C. for 5 minutes, A2/A0×100, absorbance in tetrahydrofuran
Method: as §1, with “200°” for “180°”, “(A2)” for “(A)”
Residual rate of compound (%)=A2/A0×100

[5] = Production of coloring resin composition (kneading with polybutylene terephthalate at 190° C.); conditions: 1 g colorant with 100 g polybutylene terephthalate, biaxial extruder, cylinder temperature 190° C.
Method: Using a henschel mixer, a blend of 100 g of polybutylene terephthalate (manufactured by Wintech Polymer Ltd., trade name, DURANEX 2002, melting point: 225° C.) and 1 g of the compound according to the embodiment of the present invention (compound (1-48)) was supplied to a biaxial extruder (equipment: TEX28V manufactured by Japan Steel Works, Ltd., screw speed: 200 rotations per minute (rpm)), and kneading was performed at a cylinder temperature of 190° C. to obtain a coloring resin pellet (coloring resin composition). The torque of the extruder was stable and extrusion could be continued, and the discharged strands could be stably conveyed to the pelletizer.
A coloring resin pellet was obtained in the same manner as in Example 25, except that the compound (1-48) of Example 25 was changed to OIL BLACK HBB (manufactured by Orient Chemical Industries Co., Ltd., trade name).

[6] = optical path length 10 mm (Table 7)
[7] = optical path length 10 mm (Table 9)

Structure (SMILES)	Absorption maximum wavelength [1, 6]	Molar light absorption coefficient [1, 6]	Residual rate of compound [2]	Pyrolysis in melting and mixing in the toner production [3]	Absorption maximum wavelength [1, 7]	Molar light absorption coefficient [1, 7]	Residual rate of compound [4]	Contamination due to pyrolysis in kneading of coloring resin pellet [5]
CC1(C)Nc2cccc3c(N=Nc4ccc(N=Nc5ccccc5[N+](=O)[O-])c5ccccc45)ccc(c23)N1 [(1-36)]	638 nm	30,100 L · mol^−1 · cm^−1	98%	Pyrolysis in melting and mixing in the toner production was reduced				
CC1(C)Nc2cccc3ccc(N=Nc4ccc(N=Nc5ccccc5)c5ccccc45)c(c23)N1 [Comparative compound D, reference compound]					599 nm	34200 L/mol/cm	65%	
CC(C)C1(C)Nc2cccc3ccc(N=Nc4ccc(N=Nc5ccccc5Cl)c5ccccc45)c(c23)N1 (centres unmarked) [(3-9)]					614 nm	35500 L/mol/cm	85%	
CC(=O)c1ccccc1N=Nc1ccc(N=Nc2ccc3c4c(cccc24)NC(C)(C)N3)c2ccccc12 [(1-48)]	624 nm	34,100 L · mol^−1 · cm^−1	99%					No contamination due to pyrolysis was observed
CC1(C)Nc2cccc3c(N=Nc4ccc(N=Nc5ccccc5)c5ccccc45)ccc(c23)N1 [Comparative compound C, reference compound]					607 nm	32000 L/mol/cm	59%	
